Measurements as given in patent US20090325960A1, “METHOD FOR TREATING INFLAMMATORY DISEASES USING RHO KINASE INHIBITOR COMPOUNDS” (priority 2008, published 2009).
Like-named read-outs stand apart in the source and are kept apart here.

Columns and labels:
[1] = test system: ova-sensitized, ova-challenged BALB/c mice; assay: In vivo anti-inflammatory activity, mouse ovalbumin sensitization model (BALF cells and cytokines)
Procedure: Upon arrival, the animals were randomized into groups of five males per cage and assigned to a dosing group. Animals were quarantined for 7 days under test conditions. […] Animals were sensitized on day 0 and 14 of study by an intraperitoneal injection with 20 μg of ovalbumin (ova) and 2.0 mg aluminum hydroxide (alum) which initiates the development of a specific T-helper (Th) cells type 2 resulting in asthmatic animals (denoted as Ova in the fugures). One group of animals received an injection of saline to use as control animals (denoted as normal in the figures). […] Aerosol challenge consists of using an Aerogen Aeroneb nebulizer and controller with a particle size of 4-6 μm mass median aerodynamic diameter (MMAD) with a distribution of 400 μl per minute. This aerosol challenge is necessary to target the Th2-driven allergic inflammation in the lower airways.
The anti-inflammatory dosing paradigm (FIG. 5) was utilized to evaluate the anti-inflammatory effects of experimental compounds. […] On day 32 of the experiment, after measurement of airway hyperreactivity, BALF was collected and all animals were anesthetized, bled and euthanized.
Bronchoalveolar lavage fluid (BALF) was collected by infusing 3.0 ml of saline with 10% fetal calf serum into the lungs via the trachea and then withdrawing the fluid. The total amount of cells/ml of BALF fluid was determined via manual cell count on hemocytometer. The BALF was centrifuged, supernatant removed and analyzed for cytokine concentrations as described below, and cell pellet reconstituted in 500 μL of fluid. Cytospin slides were prepared from the cell pellet using 100 μL of fluid and spinning samples for 5 minutes at 5000 rpms in a cytospin centrifuge, Following Hema3 stain, relative percentages of individual leukocytes were determined on a 200 cell count for each sample. The final concentration of individual leukocyte cell types per ml of BALF was determined by multiplication of the relative percentage of individual leukocytes with the total amount of cells/ml of BALF fluid.
The concentrations of cytokines in the BALF samples were determined using commercially available Bio-plex kits (Bio-Rad) for the detection of mouse IL-5, IL-13, and Eotaxin. The analysis of cytokine levels was measured using the Bio-Plex 200 (Bio-Rad) system according to the manufacturer's instructions.

[2] = test system: ova-sensitized, ova-challenged BALB/c mice; assay: Prevention of airway hyperreactivity (Penh, methacholine) in mouse ovalbumin sensitization model; type: in vivo; settings: for airway hyperreactivity: intratracheal once a day
Procedure: The anti-inflammatory dosing paradigm consists of dosing the animals once a day starting on day 27 and finishing on either day 30 or 31 (1 hr prior to the aerosolized ovalbumin challenges on days 28 to 30) but not on day 32 when hyperreactivity evaluation occurs. […] Exposure to the methacholine doses consisted of a 3 minute period during which a nebulizer was aerosolizing the methacholine and an additional 3 minute period following the cessation of nebulization. […] Enhanced pause (Penh), a unitless index of airway hyperreactivity, is derived from the expiratory side of the respiratory waveform measured via the plethysmograph and is used as an indirect measure of airway resistance and hyperreactivity. […] Following the methacholine dose response, BALF was collected and all animals were anesthetized, bled and euthanized. […] The Penh value at each of the dose levels of methacholine represents the 6-minute average response. Change from baseline (CFB) in Penh was calculated at each methacholine dose and the area under the curve (AUC) for these CFB values was calculated using the trapezoidal rule. This same approach was applied for each mouse across multiple experiments. […] Data from equal experimental conditions across experiments performed on different days were pooled for statistical analysis and data reporting. […] A random intercept for each experiment was assumed to account for possible similarities of the results obtained from a given experiment (i.e., as a “blocking effect”). […] For FIG. 11, linear AUC values from compound treated mice were reported as a percent of linear AUC values from vehicle-treated ovalbumin-sensitized/ovalbumin-challenged (asthmatic) mice.

[3] = test system: cytokine secretion from LPS-stimulated human monocytes; assay: Human monocyte cytokine secretion assay (LPS-stimulated); type: cell-based
Procedure: Peripheral blood from healthy human volunteers was collected and the monocytes isolated via Ficoll-paque density centrifugation. […] The cells were allowed to pre-incubate with test compound at the indicated concentration for 30 minutes (37° C., 5% CO2, humidified air); after which the supernatant was removed and media containing compound and 1 ng/mL LPS was added. Cells were allowed to incubate with compounds and LPS for 4 hours at 37° C. after which the supernatant was removed and stored at −80° C. Cytokine concentrations in the supernatant were determined using commercially available Bio-Rad Bio-Plex™ kits according the manufacturer's instructions.

[4] = test system: LPS-challenged BALB/c mice; assay: LPS-induced neutrophilia and cytokine production assay; type: in vivo, mouse; settings: for IL-1β levels in BALF: intratracheal administration, LPS-challenged animals
Procedure: Male BALB/c mice, approximately 19 to 21 grams, were ordered from Charles River Laboratories (Raleigh, N.C.). All animals were challenged with aerosolized LPS (10 μg/ml) for 25 minutes on study day 0. LPS aerosol was generated using an Aerogen Aeroneb nebulizer and controller providing a flow of 400 μl/min and a particle size of 2-4 μm MMAD. Rolipram was administered i.p at 20 mg/kg. […] Four hours following LPS challenge, BALF was collected using a total of 3 ml of 0.9% sodium chloride containing 10% fetal calf serum. Total cell counts were determined using the Coulter Counter. For differential evaluations, BALF was centrifuged and cytospin slides prepared and stained with Hema3 stain. Manual leukocyte counts were then completed on 200 cells. The final concentration of individual leukocyte cell types per ml of BALF was determined by multiplication of the relative percentage of individual leukocytes with the total amount of cells/ml of BALF fluid. The concentration of IL-1β in the BALF samples was determined using commercially available Bio-plex kits (Bio-Rad). The analysis of cytokine levels was measured using the Bio-Plex 200 (Bio-Rad) system according to the manufacturer's instructions.

[5] = Rat oral pharmacokinetics (plasma); type: in vivo; settings: rat oral PK, mean of n = 3 rats
Procedure: Plasma (EDTA K2 anticoagulant) was collected from male, cannulated, CD Sprague Dawley rats to determine the pharmacokinetics of formulations containing compound inhibitors of Rho kinase. Each animal was dosed orally with a 4 ml/kg solution or suspension of each test compound in 10 mM acetate buffered saline, pH 4.5 at a final concentration range of 20-30 mol/kg. Blood was collected at 0.25, 0.5, 1, 2, 4, 6, 8, and 24 hours. Plasma samples were assayed for the concentration of the test compound using an on-line, solid phase extraction LC/MS/MS analysis system.
Pharmacokinetic analyses were performed using WinNonlin software version 5.2 (Pharsight Corporation, Mountain View, Calif.).
As determined from the plasma concentration versus time curves, the time to peak and peak exposure are represented by the values Tmax and Cmax, respectively. The AUC values (nM*hr) shown were calculated as the areas under the plasma concentration versus time curves from time zero through the time of the last observable value and represent the total exposure of the compound over the course of the study. Half-life values or the amount of time required for the plasma levels of the compound to decline to half the initial value are represented as t1/2.

[6] = Compound concentrations in lungs of ova-sensitized mice post IP, PO and IT administration; type: in vivo; settings: male, Balb/c, mouse, lung, other: intratracheal (IT), BD model, IT 5 μmol/kg, read-out: Lung, nM (plasma corrected lung concentration)
Procedure: Additionally, compound concentrations were determined in the plasma and lungs of male, ovalbumin-sensitized, Balb/c mice from a murine model of asthma. Test compounds were formulated in water or 1% polysorbate 80 and dosed at 15 μmol/kg for intraperitoneal (IP) or oral (PO) administration or formulated for intratracheal (IT) administration and dosed at 5 μmol/kg, which directly targets the lungs. Following completion of the in vivo study, mice were euthanized and blood and plasma collected approximately 2.5-3 hours post administration of test compound for bronchodialator (BD) studies and 24 hours post administration for anti-inflamatory (AI) studies. Lungs were homogenized in Matrix A lysing tubes using a FastPrep 24 tissue and cell homogenizer (MP Biomedicals, Solon, Ohio). Both plasma samples and lung extracts were assayed for compound concentrations using an on-line, solid phase extraction LC/MS/MS system. The actual lung tissue concentrations of each compound in mouse were extrapolated from the lung and plasma concentrations, data are shown in Table 11. The results of a set of experiments using unsensitized mice and collecting only plasma 15 minutes post administration of test compounds are shown in Table 12.

human neutrophils = assay: Human neutrophil chemotaxis (fMLP-induced, Boyden chamber); type: cell-based; settings: average
Procedure: Peripheral blood from healthy human volunteers was collected and the neutrophils were isolated by Ficoll-paque density centrifugation followed by dextran sedimentation and hypotonic lysis of the red blood cells. Neutrophil chemotaxis was assessed using a modified Boyden Chamber (Neuroprobe, 96-well) with a 3 μm pore polycarbonate membrane. The ability of the tested compounds to block chemotaxis induced by a 1 μM fMLP challenge during a one hour incubation at 37° C. with 5% CO2 was assessed in a dose response manner.

murine eosinophils = assay: Murine eosinophil chemotaxis (eotaxin-induced); type: cell-based, mouse; settings: 10 nM eotaxin challenge
Procedure: Mouse Eosinophil Isolation: Bronchoalveolar lavage was collected from ovalbumin sensitized and challenged mice in a volume of 2.5 mL lavage buffer. The lavage buffer was 0.9% saline with 10% fetal bovine serum. The pooled lavages were maintained on ice until use. The murine eosinophils were isolated using MACS cell separation (Miltenyi Biotech) by depletion of B cells and T cells by positive selection following incubation with antibody conjugated magnetic beads specific for CD45-R (B220) and CD90 (Thy 1.2), which bind B cells and T cells, respectively.
(§1) In Vitro Chemotaxis: Eosinophil chemotaxis was assessed using a modified Boyden Chamber (Neuroprobe, 96-well) with a 5 μm pore membrane. The ability of the tested compounds to block chemotaxis induced by a 10 nM eotaxin challenge (mouse) or 1 nM eotaxin challenge (human) during one hour incubation at 37° C. with 5% CO2 was assessed.

human eosinophils = assay: Human eosinophil chemotaxis (eotaxin-induced); type: cell-based; settings: 1 nM eotaxin challenge
Text: Human Eosinophil Isolation: Peripheral blood from healthy human volunteers was collected and the PMNs separated via Ficoll-paque density centrifugation followed by hypotonic lysis of the red blood cells. Subsequently, the human eosinophils were isolated from the cell suspension via StemCell Technologies Human Eosinophil Enrichment kit (Cat. No 19256) according to the manufacturer's recommendations. Briefly, unwanted cells were specifically labeled with dextran-coated magnetic nanoparticles using bispecific Tetrameric Antibody Complexes (TAC) directed against cell surface antigens on human blood cells: CD2, CD3, CD14, CD16, CD19, CD20CD36, CD56, CD123, glycophorin A and dextran. The unwanted cells are then separated from the unlabelled eosinophils using the EasySep® magnetic isolation procedure.
as §1

ERK1 = biological target: T1, ERK1 (Homo sapiens, UniProt P27361); assay: Kinase panel screen (KinaseProfiler), ERK1; type: biochemical; settings: 1 μM test compound, 10 μM ATP
T1 construct: purchased Upstate, Millipore Bioscience Division (KinaseProfiler service)
T1 sequence (P27361 whole entry): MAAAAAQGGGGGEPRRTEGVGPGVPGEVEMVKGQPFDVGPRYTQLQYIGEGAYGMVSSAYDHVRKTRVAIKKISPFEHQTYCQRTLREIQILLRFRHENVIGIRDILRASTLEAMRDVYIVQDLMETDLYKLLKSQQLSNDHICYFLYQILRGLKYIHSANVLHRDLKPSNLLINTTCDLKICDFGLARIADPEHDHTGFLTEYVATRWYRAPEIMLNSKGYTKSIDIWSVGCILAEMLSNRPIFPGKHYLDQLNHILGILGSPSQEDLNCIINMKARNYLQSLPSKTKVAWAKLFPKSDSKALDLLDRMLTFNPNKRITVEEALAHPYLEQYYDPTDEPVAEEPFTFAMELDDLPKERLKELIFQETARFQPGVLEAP
Procedure: (§2) Compounds of Formulae I and II were examined for activity against a selected panel of kinases using the KinaseProfiler™ enzyme profiling services (Upstate, Millipore Bioscience Division). Percent kinase activity at 10 μM and 1 μM test compound and 10 μM ATP was determined against 40 wild-type recombinant human kinases according to Upstate's standard protocol: ASK1, BTK, CSK, c-RAF, GCK, GSK3β, IKKα, IKKβ, IRAK1, IRAK4, JNK1α1, JNK2α2, JNK3, ERK1, ERK2, MAPKAP-K2, MAPKAP-K3, MEK1, MKK4, MKK6, MKK7β, Mnk2, MSK1, PAK3, PDK1, PRAK, ROCK1, Rsk2, SAPK2a, SAPK2b, SAPK3, SAPK4, SRPK1, SRPK2, Syk, TAK1, TBK1, PI3-Kβ, PI3-Kγ, PI3-Kδ.

ERK2 = biological target: T2, ERK2 (Homo sapiens, UniProt P28482); assay: Kinase panel screen (KinaseProfiler), ERK2; type: biochemical; settings: 1 μM test compound, 10 μM ATP; read-out: Percent inhibition ERK2 at 1 μM
T2 construct: purchased Upstate, Millipore Bioscience Division (KinaseProfiler service)
T2 sequence (P28482 whole entry): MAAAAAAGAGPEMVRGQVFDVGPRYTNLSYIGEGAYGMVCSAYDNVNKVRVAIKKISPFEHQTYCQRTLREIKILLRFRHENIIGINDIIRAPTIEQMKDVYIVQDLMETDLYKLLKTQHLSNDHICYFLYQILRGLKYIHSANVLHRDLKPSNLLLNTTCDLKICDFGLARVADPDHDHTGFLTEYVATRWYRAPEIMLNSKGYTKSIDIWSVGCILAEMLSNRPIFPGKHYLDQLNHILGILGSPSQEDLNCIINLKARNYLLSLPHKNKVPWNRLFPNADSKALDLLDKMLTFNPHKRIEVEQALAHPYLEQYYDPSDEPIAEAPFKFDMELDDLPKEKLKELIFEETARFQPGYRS
Procedure: as §2

Mnk2 = biological target: T3, Mnk2 (Homo sapiens, UniProt Q9HBH9); type: biochemical
T3 construct: purchased Upstate, Millipore Bioscience Division (KinaseProfiler service)
T3 sequence (Q9HBH9 whole entry): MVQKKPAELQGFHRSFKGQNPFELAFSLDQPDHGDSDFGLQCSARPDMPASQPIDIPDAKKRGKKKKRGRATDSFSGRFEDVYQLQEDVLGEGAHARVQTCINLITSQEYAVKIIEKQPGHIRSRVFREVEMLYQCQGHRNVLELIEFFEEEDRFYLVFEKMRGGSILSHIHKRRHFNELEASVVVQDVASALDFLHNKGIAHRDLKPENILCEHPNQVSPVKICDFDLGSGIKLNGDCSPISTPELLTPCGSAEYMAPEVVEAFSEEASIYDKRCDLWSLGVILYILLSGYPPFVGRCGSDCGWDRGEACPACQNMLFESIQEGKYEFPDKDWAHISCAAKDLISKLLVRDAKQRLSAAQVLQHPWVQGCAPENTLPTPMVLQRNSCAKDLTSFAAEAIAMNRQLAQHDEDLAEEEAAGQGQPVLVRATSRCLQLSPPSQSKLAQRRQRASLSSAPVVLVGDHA
Procedure: as §2

ROCK1 = biological target: T4, ROCK1 (Homo sapiens, UniProt Q13464); assay: Rho kinase inhibition assay (IMAP fluorescence polarization), ROCK1; type: biochemical
T4 construct: purchased Upstate/Chemicon 14-601
T4 sequence (Q13464 17-535 limits assumed): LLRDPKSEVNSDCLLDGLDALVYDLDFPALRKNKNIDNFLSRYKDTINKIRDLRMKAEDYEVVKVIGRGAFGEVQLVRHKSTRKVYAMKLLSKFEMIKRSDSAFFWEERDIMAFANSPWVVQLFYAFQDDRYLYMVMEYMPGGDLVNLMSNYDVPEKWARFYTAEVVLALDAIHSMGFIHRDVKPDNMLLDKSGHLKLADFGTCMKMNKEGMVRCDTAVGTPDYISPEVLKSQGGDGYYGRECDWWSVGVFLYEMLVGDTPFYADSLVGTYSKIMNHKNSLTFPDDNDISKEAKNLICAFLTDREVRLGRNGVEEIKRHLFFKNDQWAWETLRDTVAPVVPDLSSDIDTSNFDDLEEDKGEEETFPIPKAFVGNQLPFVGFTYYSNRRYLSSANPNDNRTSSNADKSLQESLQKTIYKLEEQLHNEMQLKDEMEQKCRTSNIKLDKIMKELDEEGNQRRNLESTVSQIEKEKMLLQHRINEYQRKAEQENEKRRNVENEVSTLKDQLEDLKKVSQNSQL
Procedure: Following the pre-incubation, 10 μM ATP was added to initiate the reaction. After 60 minutes at room temperature, Molecular Devices IMAP™ binding solution was added to bind phosphorylated substrate. After 30 minutes of incubation in the presence of the IMAP™ beads, the fluorescence polarization was read and the ratio was reported as mP. IC50 values for compounds and EC50 values for ATP were calculated using the Prism software from Graphpad.

[7] = test system: A-10 rat thoracic aorta cells; assay: PDGF-stimulated smooth muscle cell proliferation assay (BrdU incorporation); type: cell-based
Procedure: Effects on cell proliferation were measured using a bromodeoxyuridine (BrdU) incorporation assay. […] Serum free media containing 0.1% BSA was added to the cells. 24 hours later the media was removed and replaced with warmed serum free media. […] Proliferation was then monitored using the BrdU Cell Proiferation Assay, HTS (Calbiochem cat. # HTS01). BrdU was allowed to incorporate into cells for 24 hours prior to the addition of fixative/denaturing solution and the fluorometric detection of incorporated BrdU using a BrdU antibody as per manufacturer's directions. Data are reported as a percent of the PDGF-stimulated BrdU incorporation.

Akt3 human enzyme = biological target: T5, Akt3 human enzyme (Homo sapiens, UniProt Q9Y243); assay: Akt3 inhibition assay (IMAP FP); type: biochemical
T5 construct: purchased Upstate Chemicon 14-502
T5 sequence (Q9Y243 whole entry): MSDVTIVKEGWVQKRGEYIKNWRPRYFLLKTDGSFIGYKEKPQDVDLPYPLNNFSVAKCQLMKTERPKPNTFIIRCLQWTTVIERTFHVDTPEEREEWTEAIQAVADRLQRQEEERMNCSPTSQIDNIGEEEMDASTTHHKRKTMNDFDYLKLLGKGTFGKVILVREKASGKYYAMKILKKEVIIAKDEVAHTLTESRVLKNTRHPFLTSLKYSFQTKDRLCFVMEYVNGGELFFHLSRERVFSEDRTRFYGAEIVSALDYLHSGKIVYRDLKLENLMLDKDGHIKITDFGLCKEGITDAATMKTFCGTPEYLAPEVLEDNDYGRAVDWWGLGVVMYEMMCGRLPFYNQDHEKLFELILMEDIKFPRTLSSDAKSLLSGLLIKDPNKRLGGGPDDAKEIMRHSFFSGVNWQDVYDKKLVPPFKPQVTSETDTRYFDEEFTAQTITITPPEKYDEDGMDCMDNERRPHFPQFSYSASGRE
Procedure: (§3) Inhibition of Akt3 and p70S6K activity was determined using the IMAP™ FP Progressive Binding Kit (Molecular Devices product number R8127). […] Following the pre-incubation, 30 μM ATP was added to initiate the reaction. After 60 minutes at RT, Molecular Devices IMAP™ binding solution was added to bind phosphorylated substrate. After 30 minutes of incubation in the presence of the IMAP™ beads the fluorescence polarization was read and the ratio was reported as mP. IC50 results were calculated using the Prism software from Graphpad. The Ki values were determined according to the following formula: Ki=IC50/(1+([ATP Challenge]/EC50 ATP)).

p70S6K human enzyme = p70S6K human enzyme (Homo sapiens, UniProt P23443, T412E); assay: p70S6K inhibition assay (IMAP FP); type: biochemical
p70S6K human enzyme, sequence (P23443 whole entry T412E): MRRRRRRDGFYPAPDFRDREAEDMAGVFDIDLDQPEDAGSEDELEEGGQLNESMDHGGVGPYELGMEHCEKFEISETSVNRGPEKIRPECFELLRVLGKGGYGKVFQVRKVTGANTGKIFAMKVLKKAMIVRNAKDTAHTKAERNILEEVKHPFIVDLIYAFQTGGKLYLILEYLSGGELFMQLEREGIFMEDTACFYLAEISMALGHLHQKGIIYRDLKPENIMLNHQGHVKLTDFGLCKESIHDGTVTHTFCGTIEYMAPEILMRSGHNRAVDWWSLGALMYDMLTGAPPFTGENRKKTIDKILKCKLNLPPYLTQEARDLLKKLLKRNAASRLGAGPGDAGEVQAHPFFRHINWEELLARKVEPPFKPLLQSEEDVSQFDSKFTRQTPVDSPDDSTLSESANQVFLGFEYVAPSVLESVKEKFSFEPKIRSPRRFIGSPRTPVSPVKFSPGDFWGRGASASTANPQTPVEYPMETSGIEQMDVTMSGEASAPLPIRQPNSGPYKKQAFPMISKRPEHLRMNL
Procedure: as §3

[8] = Compound plasma concentrations in unsensitized mice at 15 min post administration; type: in vivo; settings: mouse, 15 μmol/kg; mean plasma concentration in mice at 15 minutes post oral administration; read-out: Mouse Oral PK
[9] = test system: VEGF-induced angiogenesis; settings: 100 μM; cited from earlier work
[10] = test system: monocytes, endothelial cells, and lymphocytes; settings: cited from earlier work
[11] = 10 μM of test compound, 1 ng/mL LPS, 4 hours, read-out: IL-1β % (Percent inhibition values for inhibition of cytokine secretion)
[12] = 15 μmol/kg/oral on days 27 to 31
[13] = read-out: IL-6 % (Percent inhibition values for inhibition of cytokine secretion), 10 μM of test compound, 1 ng/mL LPS, 4 hours

CS(=O)(=O)Nc1cccc(CN2CCC[C@H](Nc3ccc4[nH]ncc4c3)C2)c1 [Compound 1.091, (S)-N-(3-((3-(1H-indazol-5-ylamino)piperidin-1-yl)methyl)phenyl)methanesulfonamide]
eosinophil influx (BALF) ([1]; dosed i.t. to day 30, anti-inflammatory dosing paradigm): reduction of eosinophils | airway hyperreactivity ([2]; days 27 to 30): prevention of airway hyperreactivity | activity at 10 µM [3, 11]: 166% | IL-1β levels in BALF [4]: reduction in IL-1β | LPS-induced pulmonary neutrophilia influx (BALF) ([4]; intratracheal dosing one hour prior to LPS challenge): significant reduction | Cmax [5]: BLQ | Tmax [5]: BLQ | Vz_F [5]: BLQ | t½ [5]: BLQ | AUC (0-last) ([5]; time zero through last observable value): BLQ | concentration at 2.5 h [6]: 123 nM

CS(=O)(=O)Nc1cccc(CN2CCC[C@@H](Nc3ccc4[nH]ncc4c3)C2)c1 [Compound 1.093, (R)-N-(3-((3-(1H-indazol-5-ylamino)piperidin-1-yl)methyl)phenyl)methanesulfonamide]
IC50 (human neutrophils): 363 µM

CS(=O)(=O)Nc1cccc(CN2CC[C@@H](Nc3cccc4cnccc34)C2)c1 [Compound 2.038, (R)-N-(3-((3-(isoquinolin-5-ylamino)pyrrolidin-1-yl)methyl)phenyl)methanesulfonamide]
inhibition of eotaxin-induced murine eosinophil chemotaxis (murine eosinophils): inhibited | inhibition of eotaxin-induced human eosinophil chemotaxis (human eosinophils): inhibited | concentration of Eotaxin in BALF [1, 12]: reduced levels | concentration of IL-5 in BALF [1, 12]: reduced levels | concentration of IL-13 in BALF [1, 12]: reduced levels | airway eosinophil infiltration (eosinophils per ml of BALF) ([1]; dosed orally to day 31, anti-inflammatory dosing paradigm): reduced | airway hyperreactivity to metacholine on Day 32 ([2]; oral 15 μMol/kg once a day, days 27 to 31): prevention of airway hyperreactivity

NC(=O)Cn1ccc2cc(CN3CC[C@@H](Nc4cccc5cnccc45)C3)ccc21 [Compound 2.059, (R)-2-(5-((3-(isoquinolin-5-ylamino)pyrrolidin-1-yl)methyl)-1H-indol-1-yl)acetamide]
airway hyperreactivity ([2]; days 27 to 31): prevention of airway hyperreactivity | activity at 10 µM [3, 13]: 0% | IL-1β levels in BALF [4]: reduction in IL-1β | Percent inhibition at 1 µM (ERK1): ~50% | activity at 1 µM (ERK2): ~50% | Percent inhibition Mnk2 at 1 μM (Mnk2): 49

Cc1ccc(CN2CC[C@@H](Nc3cccc4cnccc34)C2)cc1OCCO [Compound 2.064, (R)-2-(5-((3-(isoquinolin-5-ylamino)pyrrolidin-1-yl)methyl)-2-methylphenoxy)ethanol]
Ki (ROCK1): 4.1 nM | Ki (ROCK1; read-out: ROCK1 Ki, average): 4.1 nM | activity at 10 µM [3, 11]: 14.3% | activity at 10 µM ([3]; 10 μM of test compound, 1 ng/mL LPS, 4 hours, read-out: TNF-α % (Percent inhibition values for inhibition of cytokine secretion)): 66.2% | activity at 10 µM [3, 13]: 45.7% | Percent of PDGF Induced Proliferation at 1 μM Avg ([7]; 1 μM, 10 ng/mL PDGF): 53.1% | Percent of PDGF Induced Proliferation at 10 μM Avg ([7]; 10 μM, 10 ng/mL PDGF): 56.2% | Proliferation at 1 μM ([7]; average percent of PDGF stimulated proliferation at 1 μM test compound): 53.1% | Proliferation at 10 μM ([7]; average percent of PDGF stimulated proliferation at 10 μM test compound): 56.2% | Ki (Akt3 human enzyme; average, read-out: Akt3 Ki): 382 nM | Ki (Akt3 human enzyme; read-out: Akt3 Ki, Avg): 382 nM | Ki (p70S6K human enzyme; average, read-out: p70S6K Ki): 178 nM | Ki (p70S6K human enzyme; read-out: p70S6K Ki, Avg): 178 nM | concentration at 15 min [8]: 202 nM

O=S(=O)(c1cccc2cnccc12)N1CCCNCC1 [Fasudil]
new vessel formation [9]: new vessel formation was prevented | expression of IL-1β, TNFα, and various other cytokines [10]: suppress expression
